Results as given in ChEMBL document CHEMBL1201862, “PubChem BioAssay data set” (2004).
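Results reflect a 48-hour exposure of cells in 96-well plates to compound at five concentrations. Here, GI50 denotes the concentration required for 50% inhibition of growth.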 Activity calls are given as the source filed them. Cut-off read from the data, not from the text of the source: active = GI50 up to about 1.1 µM and inactive = higher.

How the values were obtained:
Assay in all cases: inhibition of tumour cell growth, NCI panel, 48 h
786-0 = test system: 786-0
A549 = test system: A549
BT-549 = test system: BT-549
CAKI-1 = test system: CAKI-1
HCT-116 = test system: HCT-116
HCT-15 = test system: HCT-15
HOP-62 = test system: HOP-62
HOP-92 = test system: HOP-92
Hs-578T = test system: Hs-578T
MDA-N = test system: MDA-N
NCI-H23 = test system: NCI-H23
NCI/ADR-RES = test system: NCI/ADR-RES
OVCAR-8 = test system: OVCAR-8
RXF 393 = test system: RXF 393
SK-MEL-28 = test system: SK-MEL-28
SNB-19 = test system: SNB-19
T47D = test system: T47D
U-251 = test system: U-251
UACC-62 = test system: UACC-62
LOX IMVI = test system: LOX IMVI

| Structure (SMILES) | GI50 (786-0) | GI50 (A549) | GI50 (BT-549) | GI50 (CAKI-1) | GI50 (HCT-116) | GI50 (HCT-15) [µM] | GI50 (HOP-62) | GI50 (HOP-92) | GI50 (Hs-578T) | GI50 (MDA-N) | GI50 (NCI-H23) | GI50 (NCI/ADR-RES) | GI50 (OVCAR-8) | GI50 (RXF 393) | GI50 (SK-MEL-28) | GI50 (SNB-19) | GI50 (T47D) | GI50 (U-251) | GI50 (UACC-62) | GI50 (LOX IMVI) |
| --- | --- | --- | --- | --- | --- | --- | --- | --- | --- | --- | --- | --- | --- | --- | --- | --- | --- | --- | --- | --- |
| CC(C)(Oc1ccc(-c2cccc3ccccc23)cc1)C(=O)O | > 100 µM (inactive) | 59.6 µM (inactive) | > 100 µM (inactive) | > 100 µM (inactive) | > 100 µM (inactive) | 77.3 | > 100 µM (inactive) | > 100 µM (inactive) | > 100 µM (inactive) | > 100 µM (inactive) | > 100 µM (inactive) | > 100 µM (inactive) | > 100 µM (inactive) | > 100 µM (inactive) | > 100 µM (inactive) | > 100 µM (inactive) | 80.2 µM (inactive) | > 100 µM (inactive) | > 100 µM (inactive) |  |
| CCc1n[nH]c(=O)n1CC | > 100 µM (inactive) | > 100 µM (inactive) | > 100 µM (inactive) | > 100 µM (inactive) | > 100 µM (inactive) | > 100 | > 100 µM (inactive) | > 100 µM (inactive) | > 100 µM (inactive) | > 100 µM (inactive) | > 100 µM (inactive) | > 100 µM (inactive) | > 100 µM (inactive) |  | > 100 µM (inactive) | > 100 µM (inactive) | > 100 µM (inactive) | > 100 µM (inactive) | > 100 µM (inactive) | > 100 µM (inactive) |
| CCOC(=O)c1nc2cc(F)c(N3CCOCC3)cc2[nH]c1=O | > 100 µM (inactive) | > 100 µM (inactive) | > 100 µM (inactive) | > 100 µM (inactive) | > 100 µM (inactive) | > 100 | > 100 µM (inactive) | > 100 µM (inactive) | 56.1 µM (inactive) | > 100 µM (inactive) | > 100 µM (inactive) | > 100 µM (inactive) | > 100 µM (inactive) | > 100 µM (inactive) | > 100 µM (inactive) | > 100 µM (inactive) | > 100 µM (inactive) | 99.1 µM (inactive) | > 100 µM (inactive) |  |
| CCOC(=O)/C(C#N)=N\Nc1ccc(-n2c(C)nc3ccc(Br)cc3c2=O)cc1 | 83.9 µM (inactive) | 50.2 µM (inactive) | 88.7 µM (inactive) | > 100 µM (inactive) | 42.2 µM (inactive) | 47.9 | 91.6 µM (inactive) | > 100 µM (inactive) | 51.3 µM (inactive) | > 100 µM (inactive) | > 100 µM (inactive) | 62.4 µM (inactive) | 68.1 µM (inactive) |  | 98.2 µM (inactive) | 76.6 µM (inactive) | 34.2 µM (inactive) | 91.2 µM (inactive) | 85.5 µM (inactive) | 36.1 µM (inactive) |
| O=C(O)c1cccc(Nc2c(C(=O)O)cccc2[N+](=O)[O-])c1 | > 100 µM (inactive) | > 100 µM (inactive) | > 100 µM (inactive) | > 100 µM (inactive) | > 100 µM (inactive) | > 100 | > 100 µM (inactive) | > 100 µM (inactive) | > 100 µM (inactive) | > 100 µM (inactive) | > 100 µM (inactive) | > 100 µM (inactive) | > 100 µM (inactive) |  |  | > 100 µM (inactive) | > 100 µM (inactive) |  | > 100 µM (inactive) | > 100 µM (inactive) |
| CN(CC#N)C(=O)Cc1ccc([N+](=O)[O-])cc1 | > 10 µM (inactive) | > 10 µM (inactive) | > 10 µM (inactive) | > 10 µM (inactive) | > 10 µM (inactive) | > 10 | > 10 µM (inactive) |  | > 10 µM (inactive) | > 10 µM (inactive) | > 10 µM (inactive) | > 10 µM (inactive) | > 10 µM (inactive) | > 10 µM (inactive) | > 10 µM (inactive) | > 10 µM (inactive) | > 10 µM (inactive) | > 10 µM (inactive) | > 10 µM (inactive) | > 10 µM (inactive) |
| Cc1cc2c(c(C(=O)NCCC(=O)N[C@@H](C)C(=O)OCc3ccccc3)c1)Oc1c(cc(C)cc1C(=O)NCCC(=O)N[C@@H](C)C(=O)OCc1ccccc1)S2 | > 100 µM (inactive) | > 100 µM (inactive) | > 100 µM (inactive) | > 100 µM (inactive) | > 100 µM (inactive) | > 100 | > 100 µM (inactive) |  | > 100 µM (inactive) | > 100 µM (inactive) | > 100 µM (inactive) | > 100 µM (inactive) | > 100 µM (inactive) | 38.5 µM (inactive) |  | > 100 µM (inactive) | > 100 µM (inactive) | > 100 µM (inactive) | > 100 µM (inactive) |  |
| CN(C)c1ccc(C2SCC(=O)N2c2ccc(Oc3ccc(Cl)cc3)c(Cl)c2)cc1 (stereo not given) | 17.7 µM (inactive) | 22.7 µM (inactive) | 17 µM (inactive) | 32.4 µM (inactive) | 16.7 µM (inactive) | 24.2 | 20.5 µM (inactive) | 21.8 µM (inactive) | 14.4 µM (inactive) | 28.6 µM (inactive) | 18.5 µM (inactive) | 22.3 µM (inactive) | 28.2 µM (inactive) |  | 35 µM (inactive) | 20.3 µM (inactive) | 15.3 µM (inactive) | 20.5 µM (inactive) | 19 µM (inactive) | 18.7 µM (inactive) |
| CC1OC2OC3C(OCC(O)C3O)OC(=O)[C@]34CCC(C)(C)CC3C3=CCC5[C@@]6(C)C[C@H](O)[C@H](OC7OC(CO)C(O)C(O)C7OC7OC(COC(=O)CC(C)(O)CC(=O)OC1C(OC1OC(CO)C(O)C(O)C1O)C2O)C(O)C(O)C7O)[C@@](C)(CO)C6CC[C@@]5(C)[C@]3(C)CC4 (stereo not given in full) | 2.84 µM (inactive) | 0.14 µM (active) | 6.03 µM (inactive) | 7.53 µM (inactive) | 2.59 µM (inactive) | 6.25 | 1.46 µM (inactive) | 2.24 µM (inactive) | 8 µM (inactive) | 1.44 µM (inactive) | 1.51 µM (inactive) | 3.15 µM (inactive) | 3.92 µM (inactive) |  | 1.3 µM (inactive) | 5.81 µM (inactive) | 3.34 µM (inactive) | 2.9 µM (inactive) | 1.64 µM (inactive) | 3.27 µM (inactive) |
| O=C1CCC2C(O)c3cc4c(cc3C(c3ccc5c(c3)OCO5)N12)OCO4 (stereo not given) | 82 µM (inactive) | > 100 µM (inactive) | 47.6 µM (inactive) | > 100 µM (inactive) | > 100 µM (inactive) | > 100 | 25 µM (inactive) | 35.2 µM (inactive) | 24.4 µM (inactive) | > 100 µM (inactive) | > 100 µM (inactive) | 94 µM (inactive) | 35.6 µM (inactive) |  | > 100 µM (inactive) | 29.2 µM (inactive) | > 100 µM (inactive) | 26.1 µM (inactive) | > 100 µM (inactive) | > 100 µM (inactive) |
| Cc1ccc2c(=O)c(C(=O)N(CCO)CCO)c[nH]c2n1 | > 100 µM (inactive) | > 100 µM (inactive) | > 100 µM (inactive) | > 100 µM (inactive) | > 100 µM (inactive) | > 100 | > 100 µM (inactive) |  | > 100 µM (inactive) | > 100 µM (inactive) | > 100 µM (inactive) | > 100 µM (inactive) | > 100 µM (inactive) | > 100 µM (inactive) | > 100 µM (inactive) | > 100 µM (inactive) | > 100 µM (inactive) | > 100 µM (inactive) | > 100 µM (inactive) | > 100 µM (inactive) |
| Nc1ncnc2c1ncn2C1OC(COP(=O)(O)CP(=O)(O)O)C(O)C1O (stereo not given) | > 100 µM (inactive) | > 100 µM (inactive) | > 100 µM (inactive) | > 100 µM (inactive) | > 100 µM (inactive) | > 100 | > 100 µM (inactive) |  | > 100 µM (inactive) | > 100 µM (inactive) | > 100 µM (inactive) | > 100 µM (inactive) | > 100 µM (inactive) | > 100 µM (inactive) | > 100 µM (inactive) | > 100 µM (inactive) | > 100 µM (inactive) | > 100 µM (inactive) | > 100 µM (inactive) | > 100 µM (inactive) |
| Cc1nc(/C(=N\n2cnnc2)Nc2ccc(Br)cc2)no1 | > 100 µM (inactive) | > 100 µM (inactive) | > 100 µM (inactive) | > 100 µM (inactive) | > 100 µM (inactive) | > 100 | > 100 µM (inactive) | > 100 µM (inactive) | > 100 µM (inactive) | > 100 µM (inactive) | > 100 µM (inactive) | > 100 µM (inactive) | > 100 µM (inactive) | > 100 µM (inactive) | > 100 µM (inactive) | > 100 µM (inactive) | > 100 µM (inactive) | > 100 µM (inactive) | > 100 µM (inactive) |  |
| COc1cccc(CCn2c(N)c(-c3cc(Cl)cc(Cl)c3)c3ccc([N+](=O)[O-])cc3c2=O)c1 | 4.91 µM (inactive) | 4.76 µM (inactive) | 3.53 µM (inactive) | 3.5 µM (inactive) | 2.84 µM (inactive) | 3.19 | 5.21 µM (inactive) | 2.85 µM (inactive) | 3.19 µM (inactive) | 4.53 µM (inactive) | 2.35 µM (inactive) | 3.27 µM (inactive) | 3.81 µM (inactive) |  | 4.84 µM (inactive) | 3.21 µM (inactive) | 2.78 µM (inactive) | 3.63 µM (inactive) | 3.33 µM (inactive) | 3.61 µM (inactive) |
| C[N+](C)(CCCn1ccnc1[N+](=O)[O-])CCCn1ccnc1[N+](=O)[O-] | > 100 µM (inactive) | > 100 µM (inactive) | 69.8 µM (inactive) | > 100 µM (inactive) | > 100 µM (inactive) | > 100 | > 100 µM (inactive) |  | > 100 µM (inactive) | > 100 µM (inactive) | > 100 µM (inactive) | > 100 µM (inactive) | > 100 µM (inactive) | > 100 µM (inactive) | > 100 µM (inactive) |  | > 100 µM (inactive) | > 100 µM (inactive) | > 100 µM (inactive) | > 100 µM (inactive) |
